Where “and” joins values, the source holds several entries; their conditions need not be identical. Equal entries are not always repeated.
Columns and labels:
caALK6 = experiment: caALK6-induced SMAD1/5 phosphorylation in HEK 293T cells; assay type: cell-based, human; details: cercosporamide 1-10 µM, LDN193189 200 nM
Text: (§1) HepG2 or HEK 293T cells were lysed in Laemmli sample buffer. Proteins were separated by sodium dodecyl sulfate polyacrylamide gel electrophoresis (SDS-PAGE) and transferred onto […] polyvinylidene difluoride (PVDF) membrane (IPVH00010, Merck Millipore). Membranes were blocked using 5% non-fat dry milk in Tris-buffered saline with 0.1% Tween 20 (655204, Merck Millipore) and probed with the respective primary and secondary antibodies. The signal was detected using Clarity™ Western ECL Substrate (1705060, Bio-Rad) and ChemiDoc Imaging System (17001402, Bio-Rad). The antibodies used for immunoblotting were raised against the following proteins: phospho-SMAD1/5/8 ([Persson et al., 1998]; 1:1000), SMAD1 (Cell Signaling Technology, #6944; 1:1000), GAPDH (Merck Millipore, #G8795; 1:5000) and hemagglutinin (HA; Roche, #12CA5; 1:1000).
(§2) For experiments with the caALK type I receptor constructs, HEK 293T cells were seeded in 24-well plates at ∼90% confluency and transfected with the DNA expression constructs in the presence of PEI. Thirty hours after transfection, the cells were added to serum-starved medium and treated with compounds for 16 h (overnight). Subsequently, the cells were washed with PBS and lysed in Laemmli sample buffer. […]

[1] = test system: BMP2-induced SMAD1/5-dependent BRE-luc transcriptional reporter; experiment: BMP2-induced BRE-luc transcriptional reporter assay in HepG2 cells; assay type: cell-based, human; details: HepG2, BMP2 50 ng/ml; cercosporamide 100 nM to 10 µM, LDN-193189 200 nM
Procedure: For luciferase transcriptional reporter assays, HepG2 cells were seeded in 9-cm plates at ∼60% confluency and transfected with polyethyleneimine (PEI). Twenty-four hours later, the transfected cells were seeded in 24-well plates at ∼60% confluency. Another 24 h later, the cells were serum starved for 6 h. Subsequently the cells were treated with compound or DMSO for 30 min. Thereafter, the cells were stimulated with BMP2 in the presence of compounds (or DMSO) for 16 h (overnight). Subsequently, the cells were washed with PBS and lysed. Luciferase activity was measured using the luciferase reporter assay system from Promega (Leiden, The Netherlands) by a Perkin Elmer luminometer Victor^3 1420. Each DNA transfection mixture was equalized with empty vector when necessary and every experiment was performed in triplicate. β-galactosidase expression construct was co-transfected and β-galactosidase was measured to normalize for differences in transfection efficiency. The BRE-luc reporter construct has been reported previously ([Korchynskyi and ten Dijke, 2002]).

zebrafish embryos [2] = experiment: zebrafish embryo assay (morphological developmental defects at 48 hpf); assay type: in vivo, zebrafish (Danio rerio); details: for developmental defects in zebrafish embryos: broad concentration range; for effect on zebrafish embryo development: 20 µM (maximum tested concentration)
Procedure: Zebrafish eggs obtained from family crosses of Tuebingen long fin zebrafish lines were used to assess the biological activity of all samples. The eggs were washed with fresh E3 medium and subsequently divided over 24-well plates, with ten embryos per well in 1000 µl E3 medium. Samples were added to the wells at various times as mentioned in the figures and legends. At 48 hpf, the zebrafish embryos were inspected for morphological developmental defects. Embryos displaying morphological defects were imaged using a Leica MZFLIII microscope equipped with a Leica DFC320 camera or Leica M165 FC microscope equipped with a Leica DMC5400 camera.

caALK3 = target: T1, caALK3 (Homo sapiens, UniProt P36894, Q233D); experiment: caALK3-induced SMAD1/5 phosphorylation in HEK 293T cells; assay type: cell-based; details: cercosporamide 1-10 µM, LDN193189 200 nM
T1 construct: expressed in transfected cells; host or cells: HEK 293T
Text: as §1, §2

caALK1 = target: T2, caALK1 (Homo sapiens, UniProt P37023, Q201D); experiment: caALK1-induced SMAD1/5 phosphorylation in HEK 293T cells; assay type: cell-based; details: cercosporamide 1-10 µM, LDN193189 200 nM
T2 construct: expressed in transfected cells; host or cells: HEK 293T
Text: as §1, §2

caALK2 = target: T3, caALK2 (Homo sapiens, UniProt Q04771, Q207D); experiment: caALK2-induced SMAD1/5 phosphorylation in HEK 293T cells; assay type: cell-based; details: cercosporamide 1-10 µM, LDN193189 200 nM
T3 construct: expressed in transfected cells; host or cells: HEK 293T
T3 sequence (Q04771 21-509 Q207D): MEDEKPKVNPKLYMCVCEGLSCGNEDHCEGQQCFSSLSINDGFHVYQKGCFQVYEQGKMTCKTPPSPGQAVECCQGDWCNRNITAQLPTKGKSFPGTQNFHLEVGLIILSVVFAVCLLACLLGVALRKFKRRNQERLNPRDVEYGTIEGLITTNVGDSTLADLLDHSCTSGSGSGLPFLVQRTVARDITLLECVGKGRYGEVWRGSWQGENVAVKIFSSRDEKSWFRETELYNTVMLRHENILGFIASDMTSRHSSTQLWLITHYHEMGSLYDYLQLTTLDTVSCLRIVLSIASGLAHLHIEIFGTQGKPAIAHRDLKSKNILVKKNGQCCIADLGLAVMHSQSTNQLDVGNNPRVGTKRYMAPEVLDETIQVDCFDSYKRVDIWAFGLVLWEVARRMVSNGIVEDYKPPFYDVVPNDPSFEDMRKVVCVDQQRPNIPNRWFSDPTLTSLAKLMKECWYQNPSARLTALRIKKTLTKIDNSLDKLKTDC
Text: as §1, §2

zebrafish embryos [3] = experiment: in situ hybridization with krox20/myod probes in treated zebrafish embryos; assay type: in vivo, zebrafish (Danio rerio); details: 750 nM from 6 hpf, fixed at 12 hpf
Procedure: Embryos were treated from approximately 6 hpf until 12 hpf when they were fixed in 4% paraformaldehyde overnight. In situ hybridization was performed using krox20 and myod anti-sense RNA probes as described elsewhere ([Thisse and Thisse, 2008]).

[4] = test system: BMP2-induced SMAD1/5 phosphorylation; experiment: BMP2-induced SMAD1/5 phosphorylation in HepG2 cells (immunoblot); assay type: cell-based, human; details: HepG2, BMP2 50 ng/ml, maximum tested concentration of 20 µM
Procedure: For BMP stimulation, the HepG2 cells (∼50% confluency) were starved on serum-free medium for 6 h. Subsequently, prior to the addition of BMP ligands, the cells were treated with compound for 30 min. Next, the cells were stimulated with BMP2 (50 ng/ml) or BMP6 (50 ng/ml) for 45 min. The cells were then washed with PBS and lysed in Laemmli sample buffer for western blot analysis.
as §1

T2 sequence (P37023 22-503 Q201D): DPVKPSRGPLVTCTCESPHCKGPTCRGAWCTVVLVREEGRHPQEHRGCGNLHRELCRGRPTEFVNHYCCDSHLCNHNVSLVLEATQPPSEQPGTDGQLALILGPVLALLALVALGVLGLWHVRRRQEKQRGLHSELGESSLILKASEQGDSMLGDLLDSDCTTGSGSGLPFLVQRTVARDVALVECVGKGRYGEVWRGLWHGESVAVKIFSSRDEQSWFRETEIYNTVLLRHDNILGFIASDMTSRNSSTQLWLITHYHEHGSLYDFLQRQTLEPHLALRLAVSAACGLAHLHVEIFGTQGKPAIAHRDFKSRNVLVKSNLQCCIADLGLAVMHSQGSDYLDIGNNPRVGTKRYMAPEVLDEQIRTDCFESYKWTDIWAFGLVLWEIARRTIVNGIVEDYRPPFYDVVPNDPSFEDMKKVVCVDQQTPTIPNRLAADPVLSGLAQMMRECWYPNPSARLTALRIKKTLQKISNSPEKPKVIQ
T1 sequence (P36894 24-532 Q233D): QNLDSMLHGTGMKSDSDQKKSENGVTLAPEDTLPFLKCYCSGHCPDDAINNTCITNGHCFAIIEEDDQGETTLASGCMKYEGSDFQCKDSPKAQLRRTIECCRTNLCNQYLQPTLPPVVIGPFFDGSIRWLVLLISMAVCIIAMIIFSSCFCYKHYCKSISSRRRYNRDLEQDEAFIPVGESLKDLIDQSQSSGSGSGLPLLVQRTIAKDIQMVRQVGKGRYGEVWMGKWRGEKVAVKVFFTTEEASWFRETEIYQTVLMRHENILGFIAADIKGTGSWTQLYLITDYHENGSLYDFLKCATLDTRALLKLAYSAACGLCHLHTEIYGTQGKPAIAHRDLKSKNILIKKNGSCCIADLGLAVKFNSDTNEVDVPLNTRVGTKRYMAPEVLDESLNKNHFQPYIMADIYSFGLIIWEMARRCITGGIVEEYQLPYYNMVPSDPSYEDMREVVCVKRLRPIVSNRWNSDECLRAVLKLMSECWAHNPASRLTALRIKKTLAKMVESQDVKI

Structure (SMILES): c1ccc2c(-c3cnn4cc(-c5ccc(N6CCNCC6)cc5)cnc34)ccnc2c1 [LDN-193189, reference compound]
- effect on caALK6-induced SMAD1/5 phosphorylation (caALK6): strongly reduced
- effect on BMP2-induced BRE-luc activity [1]: potent antagonizing effect
- developmental defects, single treatment (zebrafish embryos [2]; 5 µM, from 7 hpf onwards): did not induce detectable developmental defects
- effect on caALK3-induced SMAD1/5 phosphorylation (caALK3): strongly reduced
- effect on caALK1-induced SMAD1/5 phosphorylation (caALK1): strongly reduced
- effect on caALK2-induced SMAD1/5 phosphorylation (caALK2): strongly reduced

Structure (SMILES): CC(C)Oc1ccc(-c2cnc3c(-c4ccnc5ccccc45)cnn3c2)cc1 [DMH-1]
- lethality (zebrafish embryos [2]; 250 nM, treatment from 2 hpf onwards): lethal
- embryos in which treatment is lethal (zebrafish embryos [2]; 250 nM, treatment from 4 hpf): 50%
- phenotype (zebrafish embryos [2]; 750 nM): loss of the ventral fin
- phenotype at 48 hpf (zebrafish embryos [2]; DMH-1 treatment at 8 hpf (250 nM, Fig. S3)): mild defects
- krox20 expression pattern (zebrafish embryos [3]): induced lateral expression of krox20
- fraction of embryos showing the pattern (zebrafish embryos [3]; one fraction per depicted pattern): 9/13 and 4/13

Structure (SMILES): Cc1cccc(-c2[nH]ncc2-c2ccc3ncccc3n2)n1 [ALK5 kinase inhibitor II]
- developmental defects in zebrafish embryos (zebrafish embryos [2]): severely curved tail and fused eyes

Structure (SMILES): Cc1cccc(-c2nn(C(=S)Nc3ccccc3)cc2-c2ccnc3ccccc23)n1 [A83-01]
- developmental defects in zebrafish embryos (zebrafish embryos [2]): severely curved tail and fused eyes

Structure (SMILES): Cc1cc(Nc2cc(N)ncn2)c(=O)n2c1C(=O)NC21CCCCC1 [eFT508]
- effect on zebrafish embryo development (zebrafish embryos [2]): no effect
- effect on zebrafish embryo development (zebrafish embryos [2]; listed as eFT 508): did not induce developmental
- effect on SMAD1/5 phosphorylation [4]: no effect
- effect on SMAD1/5 phosphorylation ([4]; listed as eFT 508): did not affect

Source: paper PMC7522027 (Disease Models & Mechanisms, 2020)
